Measured values from patent publication US7964560B2, “Hepatitis C virus inhibitors” (Bristol-Myers Squibb Company, priority 2008, dated 2011).
Where two headings read alike, the source gives them in different places.

Key:
[1] = target: T1, HCV NS3/4A protease complex, BMS strain (UniProt P27958, species not given/STRAIN_BMS); assay: FRET peptide assay to monitor HCV NS3/4A proteolytic activity (BMS strain); assay type: biochemical, Hepatitis C virus (genotype 1a); details: Table 2, NS3/4A BMS strain
T1 construct: said of H77 and J4L6S; fused on or other part: three-lysine solubilising tail at the end of NS4A (printed for the H77 and J4L6S constructs; probably the same for BMS)
T1 sequence (P27958 1027-1657, change not shown, one chain of several): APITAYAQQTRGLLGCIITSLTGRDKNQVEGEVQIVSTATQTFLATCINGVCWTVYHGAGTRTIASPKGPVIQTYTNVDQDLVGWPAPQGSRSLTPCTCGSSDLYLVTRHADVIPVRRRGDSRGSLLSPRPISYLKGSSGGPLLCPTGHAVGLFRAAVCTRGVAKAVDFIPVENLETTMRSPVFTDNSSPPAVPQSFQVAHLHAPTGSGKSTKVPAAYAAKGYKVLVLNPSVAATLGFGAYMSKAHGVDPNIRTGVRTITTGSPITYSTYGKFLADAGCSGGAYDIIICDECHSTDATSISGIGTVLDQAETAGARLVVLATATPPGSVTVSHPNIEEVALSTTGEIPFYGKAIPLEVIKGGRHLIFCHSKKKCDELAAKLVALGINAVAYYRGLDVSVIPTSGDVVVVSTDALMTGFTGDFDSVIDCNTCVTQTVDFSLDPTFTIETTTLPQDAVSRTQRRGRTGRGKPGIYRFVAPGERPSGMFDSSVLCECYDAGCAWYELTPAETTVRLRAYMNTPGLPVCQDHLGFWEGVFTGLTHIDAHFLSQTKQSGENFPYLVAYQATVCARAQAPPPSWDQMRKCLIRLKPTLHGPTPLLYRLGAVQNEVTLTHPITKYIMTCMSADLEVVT
Source text: HCV […] protease complexes, derived from the BMS strain, H77 strain or J4L6S strain, were generated, as described below. These purified recombinant proteins were generated for use in a homogeneous assay (see below) to provide an indication of how effective compounds of the present disclosure would be in inhibiting HCV NS3 proteolytic activity.
Serum from an HCV-infected patient was obtained from Dr. T. Wright, San Francisco Hospital. An engineered full-length cDNA (compliment deoxyribonucleic acid) template of the HCV genome (BMS strain) was constructed from DNA fragments obtained by reverse transcription-PCR (RT-PCR) of serum RNA (ribonucleic acid) and using primers selected on the basis of homology between other genotype 1a strains. From the determination of the entire genome sequence, a genotype 1a was assigned to the HCV isolate according to the classification of Simmonds et al. (See Simmonds, P. et al., J. Clin. Microbiol., 31(6), 1493-1503 (1993)). […] The infectious clones, H77 (1a genotype) and J4L6S (1b genotype) were obtained from R. Purcell (NIH) and the sequences are published in GENBANK® (AAB67036, see Yanagi, M. et al., Proc. Natl. Acad. Sci. U.S.A., 94(16):8738-8743 (1997); AF054247, see Yanagi, M. et al., Virology, 244(1):161-172 (1998)).
The H77 and J4L6S strains were used for production of recombinant NS3/4A protease complexes. DNA encoding the recombinant HCV NS3/4A protease complex (amino acids 1027 to 1711) for these strains were manipulated as described by P. Gallinari et al. (see Gallinari, P. et al, Biochemistry, 38(17):5620-5632 (1999)). Briefly, a three-lysine solubilizing tail was added at the 3′-end of the NS4A coding region. The cysteine in the P1 position of the NS4A-NS4B cleavage site (amino acid 1711) was changed to a glycine to avoid the proteolytic cleavage of the lysine tag. Furthermore, a cysteine to serine mutation was introduced by PCR at amino acid position 1454 to prevent the autolytic cleavage in the NS3 helicase domain. The variant DNA fragment was cloned in the pET21b bacterial expression vector (Novagen) and the NS3/4A complex was expressed in Escherichia. coli strain BL21 (DE3) (Invitrogen) following the protocol described by P. Gallinari et al. (see Gallinari, P. et al., J. Virol., 72(8):6758-6769 (1998)) with modifications. Briefly, the NS3/4A protease complex expression was induced with 0.5 millimolar (mM) Isopropyl β-D-1-thiogalactopyranoside (IPTG) for 22 hours (h) at 20° C. A typical fermentation (1 Liter (L)) yielded approximately 10 grams (g) of wet cell paste. The cells were resuspended in lysis buffer (10 mL/g) consisting of 25 mM N-(2-hydroxyethyl)piperazine-N′-(2-ethane sulfonic acid) (HEPES), pH 7.5, 20% glycerol, 500 mM sodium chloride (NaCl), 0.5% Triton X-100, 1 microgram/milliliter (“μg/mL”) lysozyme, 5 mM magnesium chloride (MgCl2), 1 μg/ml DnaseI, 5 mM β-mercaptoethanol (βME), protease inhibitor-ethylenediamine tetraacetic acid (EDTA) free (Roche), homogenized and incubated for 20 minutes (min) at 4° C. The homogenate was sonicated and clarified by ultra-centrifugation at 235000 g for 1 hour (h) at 4° C. Imidazole was added to the supernatant to a final concentration of 15 mM and the pH adjusted to 8.0. The crude protein extract was loaded on a Nickel-Nitrilotriacetic acid (Ni-NTA) column pre-equilibrated with buffer B (25 mM HEPES, pH 8.0, 20% glycerol, 500 mM NaCl, 0.5% Triton X-100, 15 mM imidazole, 5 mM βME). The sample was loaded at a flow rate of 1 mL/min. The column was washed with 15 column volumes of buffer C (same as buffer B except with 0.2% Triton X-100). The protein was eluted with 5 column volumes of buffer D (same as buffer C except with 200 mM Imidazole).
NS3/4A protease complex-containing fractions were pooled and loaded on a desalting column Superdex-S200 pre-equilibrated with buffer D (25 mM HEPES, pH 7.5, 20% glycerol, 300 mM NaCl, 0.2% Triton X-100, 10 mM βME). Sample was loaded at a flow rate of 1 mL/min. […]

[2] = tested on: HCV replicon in HUH-7 cells; assay: HCV replicon FRET assay; assay type: cell-based, Hepatitis C virus (strain 1b); details: Hepatitis C virus, Huh-7, Table 2, HCV replicon, replicon assay format not stated, read-out: EC50
Source text: An HCV replicon whole cell system was established as described by Lohmann, V. et al., Science, 285(5424):110-113 (1999). This system enabled us to evaluate the effects of our HCV Protease compounds on HCV RNA replication. Briefly, using the HCV strain 1b sequence described in the Lohmann paper (Accession number: AJ238799), an HCV cDNA was synthesized by Operon Technologies, Inc. (Alameda, Calif.), and the full-length replicon was then assembled in plasmid pGem9zf(+) (Promega, Madison, Wis.) using standard molecular biology techniques. The replicon consists of (i) the HCV 5′ UTR fused to the first 12 amino acids of the capsid protein, (ii) the neomycin phosphotransferase gene (neo), (iii) the IRES from encephalomyocarditis virus (EMCV), and (iv) HCV NS3 to NS5B genes and the HCV 3′ UTR. Plasmid DNAs were linearized with ScaI and RNA transcripts were synthesized in vitro using the T7 MegaScript transcription kit (Ambion, Austin, Tex.) according to manufacturer's directions. In vitro transcripts of the cDNA were transfected into the human hepatoma cell line, HUH-7. […] Resulting cell lines were characterized for positive and negative strand RNA production and protein production over time.
The HCV replicon FRET assay was developed to monitor the inhibitory effects of compounds described in the disclosure on HCV viral replication. HUH-7 cells, constitutively expressing the HCV replicon, were grown in Dulbecco's Modified Eagle Media (DMEM) (Gibco-BRL) containing 10% Fetal calf serum (FCS) (Sigma) and 1 mg/ml G418 (Gibco-BRL). Cells were seeded the night before (1.5×10^4 cells/well) in 96-well tissue-culture sterile plates. Compound and no compound controls were prepared in DMEM containing 4% FCS, 1:100 Penicillin/Streptomysin (Gibco-BRL), 1:100 L-glutamine and 5% DMSO in the dilution plate (0.5% DMSO final concentration in the assay). Compound/DMSO mixes were added to the cells and incubated for 4 days at 37° C. After 4 days, cells were first assessed for cytotoxicity using alamar Blue (Trek Diagnostic Systems) for a CC50 reading. The toxicity of compound (CC50) was determined by adding 1/10th volume of alamar Blue to the media incubating the cells. After 4 h, the fluorescence signal from each well was read, with an excitation wavelength at 530 nm and an emission wavelength of 580 nm, using the CYTOFLUOR® Series 4000 (Perspective Biosystems). Plates were then rinsed thoroughly with Phosphate-Buffered Saline (PBS) (3 times 150 μl). The cells were lysed with 25 μl of a lysis assay reagent containing an HCV protease substrate (5× cell Luciferase cell culture lysis reagent (PROMEGA® #E153A) diluted to 1× with distilled water, NaCl added to 150 mM final, the FRET peptide substrate (as described for the enzyme assay above) diluted to 10 μM final from a 2 mM stock in 100% DMSO. The plate was then placed into the CYTOFLUOR® 4000 instrument which had been set to 340 nm excitation/490 nm emission, automatic mode for 21 cycles and the plate read in a kinetic mode. EC50 determinations were carried out as described for the IC50 determinations.

| Structure (SMILES) | IC50 ([1]; activity range) | EC50 ([2]; activity range) | IC50 ([1]; numeric values) | EC50 ([2]; numeric values) |
| --- | --- | --- | --- | --- |
| C=C[C@@H]1C[C@]1(NC(=O)[C@@H]1C[C@@](SC(C)C)(c2ccc(-c3ccccc3)cc2)CN1C(=O)[C@@H](NC(=O)OC1(C)CCCC1)C(C)(C)C)C(=O)NS(=O)(=O)C1CC1 [Example 11, 1-methylcyclopentyl (S)-1-((2S,4R)-4-(biphenyl-4-yl)-2-((1R,2S)-1-(cyclopropylsulfonylcarbamoyl)-2-vinylcyclopropylcarbamoyl)-4-(isopropylthio)pyrrolidin-1-yl)-3,3-dimethyl-1-oxobutan-2-ylcarbamate] | 1 to 20 nM | 6 to 100 nM | – | – |
| C=C[C@@H]1C[C@]1(NC(=O)[C@@H]1C[C@@](SC)(c2ccc(-c3ccccc3)cc2)CN1C(=O)[C@@H](NC(=O)OC(C)(C)C)C(C)(C)C)C(=O)NS(=O)(=O)C1CC1 [Example 8, tert-butyl (S)-1-((2S,4R)-4-(biphenyl-4-yl)-2-((1R,2S)-1-(cyclopropylsulfonylcarbamoyl)-2-vinylcyclopropylcarbamoyl)-4-(methylthio)pyrrolidin-1-yl)-3,3-dimethyl-1-oxobutan-2-ylcarbamate] | 1 to 20 nM | 6 to 100 nM | – | – |
| C=CCS[C@@]1(c2ccc(-c3ccccc3)cc2)C[C@@H](C(=O)N[C@]2(C(=O)NS(=O)(=O)C3CC3)C[C@H]2C=C)N(C(=O)[C@@H](NC(=O)OC(C)(C)C)C(C)(C)C)C1 [Example 12, tert-butyl (S)-1-((2S,4R)-4-(allylthio)-4-(biphenyl-4-yl)-2-((1R,2S)-1-(cyclopropylsulfonylcarbamoyl)-2-vinylcyclopropylcarbamoyl)pyrrolidin-1-yl)-3,3-dimethyl-1-oxobutan-2-ylcarbamate] | 1 to 20 nM | 6 to 100 nM | – | – |
| CCCCS[C@@]1(c2ccc(-c3ccccc3)cc2)C[C@@H](C(=O)N[C@]2(C(=O)NS(=O)(=O)C3CC3)C[C@H]2C(F)F)N(C(=O)[C@@H](NC(=O)OC(C)(C)C)C(C)(C)C)C1 [Example 6, tert-butyl (S)-1-((2S,4R)-4-(biphenyl-4-yl)-4-(butylthio)-2-((1R,2R)-1-(cyclopropylsulfonylcarbamoyl)-2-(difluoromethyl)cyclopropylcarbamoyl)pyrrolidin-1-yl)-3,3-dimethyl-1-oxobutan-2-ylcarbamate] | – | – | 2 nM | 18 to 36 nM |
| CCCCS[C@@]1(c2ccc(-c3ccccc3)cc2)C[C@@H](C(=O)N[C@]2(C(=O)NS(=O)(=O)C3CC3)C[C@H]2CC(F)F)N(C(=O)[C@@H](NC(=O)OC(C)(C)C)C(C)(C)C)C1 [Example 4, tert-butyl (S)-1-((2S,4R)-4-(biphenyl-4-yl)-4-(butylthio)-2-((1R,2S)-1-(cyclopropylsulfonylcarbamoyl)-2-(2,2-difluoroethyl)cyclopropylcarbamoyl)pyrrolidin-1-yl)-3,3-dimethyl-1-oxobutan-2-ylcarbamate] | 1 to 20 nM | 6 to 100 nM | – | – |
| C=C[C@@H]1C[C@]1(NC(=O)[C@@H]1C[C@](c2ccc(-c3ccccc3)cc2)([S+]([O-])CCCC)CN1C(=O)[C@@H](NC(=O)OC(C)(C)C)C(C)(C)C)C(=O)NS(=O)(=O)C1CC1 (single isomer, unassigned) [Example 2] | 1 to 20 nM | 6 to 100 nM | – | – |
| CCCCS[C@@]1(c2ccc(-c3ccccc3)cc2)C[C@@H](C(=O)N[C@]2(C(=O)NS(=O)(=O)C3CC3)C[C@H]2C2CC2)N(C(=O)[C@@H](NC(=O)OC(C)(C)C)C(C)(C)C)C1 [Example 5, tert-butyl (S)-1-((2S,4R)-4-(biphenyl-4-yl)-4-(butylthio)-2-((1S,2R)-2-(cyclopropylsulfonylcarbamoyl)bi(cyclopropan)-2-ylcarbamoyl)pyrrolidin-1-yl)-3,3-dimethyl-1-oxobutan-2-ylcarbamate] | 1 to 20 nM | 6 to 100 nM | – | – |
| C=C[C@@H]1C[C@]1(NC(=O)[C@@H]1C[C@@](SC(C)C)(c2ccc(-c3ccccc3)cc2)CN1C(=O)[C@@H](NC(=O)OC(C)(C)C)C(C)(C)C)C(=O)NS(=O)(=O)C1CC1 [Example 9, tert-butyl (S)-1-((2S,4R)-4-(biphenyl-4-yl)-2-((1R,2S)-1-(cyclopropylsulfonylcarbamoyl)-2-vinylcyclopropylcarbamoyl)-4-(isopropylthio)pyrrolidin-1-yl)-3,3-dimethyl-1-oxobutan-2-ylcarbamate] | 1 to 20 nM | 6 to 100 nM | – | – |
| CCCCS[C@@]1(c2ccc(-c3ccccc3)cc2)C[C@@H](C(=O)N[C@]2(C(=O)NS(=O)(=O)C3CC3)C[C@H]2C=C(F)F)N(C(=O)[C@@H](NC(=O)OC(C)(C)C)C(C)(C)C)C1 [Example 7, tert-butyl (S)-1-((2S,4R)-4-(biphenyl-4-yl)-4-(butylthio)-2-((1R,2S)-1-(cyclopropylsulfonylcarbamoyl)-2-(2,2-difluorovinyl)cyclopropylcarbamoyl)pyrrolidin-1-yl)-3,3-dimethyl-1-oxobutan-2-ylcarbamate] | 1 to 20 nM | 6 to 100 nM | – | – |
